Measured values from patent US9920073B2, “Compositions useful for inhibiting HIV-1 infection and methods using same” (Drexel University, priority 2013, dated 2018).
Like-named read-outs stand apart in the source and are kept apart here.

How the values were obtained:
Assay in all cases: microbe, parasite or virus in culture
Format in all cases: cell-based
[1] = test system: amphotropic murine leukemia virus (AMLV); conditions: for IC50: specificity control
HIV-1YU-2 = test system: HIV-1YU-2
HIV-1JR-CSF = test system: HIV-1JR-CSF
HIV-1HxBc2 = conditions: Human immunodeficiency virus 1, read-out: IC50 HxBc2
[2] = Murine leukemia virus, read-out: IC50 AMLV, Table 2 screening results
[3] = Human immunodeficiency virus 1, read-out: IC50 YU-2, single round infection assay
[4] = read-out: IC50 YU-2, single round infection assay
[5] = read-out: IC50 AMLV, Table 2 screening results
[6] = Human immunodeficiency virus 1, read-out: IC50 JR-CSF
[7] = read-out: IC50 JR-CSF, single round infection assay

SMILES	IC50 [1, 2] [µM]	IC50 (HIV-1YU-2; [3]) [µM]	further results
O=C(c1ccccn1)N1CCN(S(=O)(=O)c2ccc3ccccc3c2)CC1 [Compound 1]	> 300	> 300	
O=C(CCC(=O)N1CCN(C(=O)c2ccccc2)CC1)c1ccc(Cl)s1 [Compound 2]	> 300	> 300	
O=C(c1ccccn1)N1CCN(S(=O)(=O)c2ccc3c(c2)OCCO3)CC1 [Compound 3]	> 300	> 300	
O=C(c1ccccc1)N1CCN(S(=O)(=O)c2ccc(Cl)c(C(F)(F)F)c2)CC1 [Compound 4]	> 300	> 300	
CCc1cc(C(=O)N2CCN(C(=O)c3ccccc3)CC2)sc1C [Compound 5]	> 300	> 300	
O=C(COc1cccc(Br)c1)N1CCN(C(=O)c2ccccc2)CC1 [Compound 6]	> 300	> 300	
O=C1CSc2ccc(C(=O)N3CCN(C(=O)c4cccs4)CC3)cc2N1 [Compound 7]	> 300	> 300	
O=C(c1ccccc1)N1CCN(C(=O)c2ccc3c(c2)CCC3)CC1 [Compound 8]	> 300	> 300	
Cc1ccc2nc(C)c(C(=O)N3CCN(C(=O)c4ccccc4)CC3)cc2c1 [Compound 9]	> 300	> 300	
Cc1cccc(C(=O)N2CCN(S(=O)(=O)c3ccc(C)c(C)c3)CC2)c1 [Compound 10]	> 300	> 300	
O=C(c1ccccc1)N1CCN(C(=O)c2ccc3c4c(cccc24)CC3)CC1 [Compound 11]	> 300		IC50 (HIV-1YU-2; [4]): 15.7 µM
O=C(COc1cccc2ccccc12)N1CCN(C(=O)c2ccccc2)CC1 [Compound 12]	> 300	53.3 ± 3.7	
O=C(c1ccccc1)N1CCN(S(=O)(=O)c2ccc3c(c2)CCCC3)CC1 [Compound 13]	197	117	
O=C(c1cc(-c2ccc(Cl)cc2)on1)N1CCN(S(=O)(=O)c2ccccc2F)CC1 [Compound 14]	> 300	> 300	
COc1ccc(Br)cc1C=CC(=O)N1CCC(C(=O)c2ccccc2)CC1 [Compound 15]	210	156	
O=C(c1ccccc1)N1CCN(C(=O)c2csc(-c3ccccc3)n2)CC1 [Compound 16]	> 300	> 300	
Cc1nc2ccc(Cl)cc2cc1C(=O)N1CCN(S(=O)(=O)c2ccccc2)CC1 [Compound 17]	238	193	
Cc1ccc(C(C)C)c(OCC(=O)N2CCN(C(=O)c3ccccc3)CC2)c1 [Compound 18]			IC50 [1, 5]: > 300 µM; IC50 (HIV-1YU-2; [4]): > 300 µM
O=C(C1=Cc2cc(Br)ccc2OC1)N1CCN(C(=O)c2ccccc2)CC1 [Compound 19]	> 300	> 300	

SMILES	IC50 [1, 2] [µM]	IC50 (HIV-1YU-2; [3]) [µM]	further results
Cc1nn(-c2ccccc2)c(C)c1C(=O)C(=O)N1CCN(C(=O)c2ccccc2)CC1 [Compound 20]			IC50 [1, 5]: > 300 µM; IC50 (HIV-1YU-2; [4]): > 300 µM
Cc1c(C)c(C)c(S(=O)(=O)N2CCN(C(=O)c3cccnc3O)CC2)c(C)c1C [Compound 21]	> 300	> 300	
CCc1ccc(C(=O)N2CCN(C(=O)c3cc4cc(C)ccc4nc3C)CC2)cc1 [Compound 22]	> 300	> 300	
O=C(c1cnccn1)N1CCN(C(=O)c2cc3ccccc3cc2O)CC1 [Compound 24]	> 300	> 300	
CC(C(=O)N1CCCc2ccccc21)N1CCN(C(=O)c2ccccc2)CC1 (stereo not shown) [Compound 25]	> 50	> 50	
O=C(COc1ncnc2sc(-c3ccccc3)cc12)N1CCN(C(=O)c2ccco2)CC1 [Compound 26]	> 50	> 50	
O=C(c1ccccc1)N1CCN(C(=O)c2cc(-c3ccncc3)nc3ccccc23)CC1 [Compound 27]	> 50	> 50	
O=C(CSc1ncnc2sccc12)N1CCN(C(=O)c2cccs2)CC1 [Compound 28]	> 50	1.6 ± 0.4	
O=C(c1ccccc1)N1CCN(C(=O)c2ccc(N3CCOCC3)c([N+](=O)[O-])c2)CC1 [Compound 29]	> 50	> 50	
O=C(CSc1nnnn1C1CCCC1)N1CCN(C(=O)c2cccs2)CC1 [Compound 30]	> 50	> 50	
CCOC(=O)N1CCN(C(=O)C(=O)c2c(C)[nH]c3ccccc23)CC1 [Compound 31]	> 50	> 50	
O=C(Cc1cccc2ccccc12)N1CCN(C(=O)c2ccco2)CC1 [Compound 32]	> 50	22.8	
O=C(COc1cccc2ccccc12)N1CCN(C(=O)c2ccccc2F)CC1 [Compound 33]	> 50	> 50	
Cc1cc(C)nc(SCC(=O)N2CCN(C(=O)c3ccccc3)CC2)n1 [Compound 34]	> 50	19.4	
Cc1cnc2c(S(=O)(=O)N3CCN(C(=O)c4ccc(C)s4)CC3)cccc2c1 [Compound 35]	> 50	> 50	
Cc1nn(-c2ccccc2)c(C)c1C(=O)C(=O)N1CCN(C(=O)c2ccccc2)CC1 [Compound 36]			IC50 [1, 5]: > 50 µM; IC50 (HIV-1YU-2; [4]): > 50 µM
CC(C)n1ncc2c(C(=O)N3CCN(C(=O)c4ccccc4)CC3)cc(-c3ccco3)nc21 [Compound 37]	> 50	> 50	
Cc1nn(C)c2nc(-c3cccs3)cc(C(=O)N3CCN(C(=O)c4ccccc4)CC3)c12 [Compound 38]	> 50	> 50	
O=C(c1ccco1)N1CCN(C(O)COc2ccc(Cl)cc2[N+](=O)[O-])CC1 (stereo not shown) [Compound 39]	> 50	> 50	

SMILES	IC50 [1, 2] [µM]	IC50 (HIV-1YU-2; [3]) [µM]	further results
Cc1[nH]c2ccccc2c1C(=O)C(=O)N1CCC(C(=O)c2ccc(O)cc2)CC1 [Compound 40]	> 50	> 50	
O=C(CSC1=Nc2ccccc2CS1)N1CCN(C(=O)c2cccs2)CC1 [Compound 41]	> 50	> 50	
COc1ccc(O)cc1NCC(=O)N1CCN(S(=O)(=O)c2ccc3c(c2)CCC3)CC1 [Compound 42]	> 50	> 50	
COc1ccc(Cl)cc1C(=O)Cn1c(=O)oc2cc(S(=O)(=O)N3CCOCC3)ccc21 [Compound 43]	> 50	> 50	
COc1ccc(OC)c(CCC(=O)N2CCN(C(=O)c3cccc(OC(F)F)c3)CC2)c1 [Compound 44]	> 50	> 50	
COc1ccc(OC)c(/C=C/C(=O)N2CCN(C(=O)C3CC3)CC2)c1 [Compound 45]	> 50	> 50	
O=C(c1ccccc1)N1CCN(C(=O)c2ccc3noc(-c4ccccc4)c3c2)CC1 [Compound 46]	> 50	> 50	
COc1cccc(C(=O)N2CCN(C(=O)COc3cccc4ccccc34)CC2)c1 [Compound 47]	> 50	> 50	
CCN(CC)S(=O)(=O)N1CCN(C(=O)C(=O)c2c(C)[nH]c3ccccc23)CC1 [Compound 48]	> 50	> 50	
Cc1ccc(C(C)C)c(OCC(=O)N2CCN(C(=O)c3ccccc3)CC2)c1 [Compound 49]			IC50 [1, 5]: > 50 µM; IC50 (HIV-1YU-2; [4]): > 50 µM
COc1ccc(C(=O)N2CCN(C(=O)COc3cccc4ccccc34)CC2)cc1 [Compound 50]	> 50	> 50	
O=C(c1ccccc1)N1CCN(C(=O)c2ccc3c4c(cccc24)CC3)CC1 [SC03, (4-benzoylpiperazin-1-yl)(1,2-dihydroacenaphthylen-5-yl)methanone]		13.1 ± 1.7	IC50 (HIV-1JR-CSF; [6]): 0.42 ± 0.28 µM
O=C(c1ccccc1)N1CC2CN(C(=O)c3ccc4c5c(cccc35)CC4)CC2C1 (stereo not shown) [SC04, (5-benzoylhexahydropyrrolo[3,4-c]pyrrol-2(1H)-yl)(1,2-dihydroacenaphthylen-5-yl)methanone]		70 ± 6	IC50 (HIV-1JR-CSF; [7]): 100 ± 30 µM
COc1ncc(OC)c2c(C(=O)C(=O)N3CC4CCC(c5ccccc5)C4C3)c[nH]c12 (stereo not shown) [SC10, 1-(4,7-dimethoxy-1H-pyrrolo[2,3-c]pyridin-3-yl)-2-(4-phenylhexahydrocyclopenta[c]pyrrol-2(1H)-yl)ethane-1,2-dione]			IC50 (HIV-1JR-CSF; [6]): 0.42 ± 0.11 µM; IC50 (HIV-1HxBc2): 4.81 ± 4.1 µM
COc1cnc(-n2cnc(C)n2)c2[nH]cc(C(=O)C(=O)N3CC4CN(C(=O)c5ccccc5)CC4C3)c12 (stereo not shown) [SC11, 1-(5-benzoylhexahydropyrrolo[3,4-c]pyrrol-2(1H)-yl)-2-(4-methoxy-7-(3-methyl-1H-1,2,4-triazol-1-yl)-1H-pyrrolo[2,3-c]pyridin-3-yl)ethane-1,2-dione]			IC50 (HIV-1JR-CSF; [7]): 0.0008 ± 0.0004 µM; specificity to HIV-1 (inhibition of AMLV-pseudotyped HIV-1) ([1]; single round infection assay, in words): retaining HIV-1 specificity
COc1cnc(-n2cnc(C)n2)c2[nH]cc(C(=O)C(=O)N3CC4C=NN(c5cccc(C)n5)C4C3)c12 (stereo not shown) [SC24, 1-(4-methoxy-7-(3-methyl-1H-1,2,4-triazol-1-yl)-1H-pyrrolo[2,3-c]pyridin-3-yl)-2-(1-(6-methylpyridin-2-yl)-3a,4,6,6a-tetrahydropyrrolo[3,4-c]pyrazol-5(1H)-yl)ethane-1,2-dione]			IC50 (HIV-1JR-CSF; [6]): 0.7 ± 0.4 µM
O=C(C(=O)N1CC2C=NN(c3ccccc3)C2C1)c1c[nH]c2c(-n3ccnn3)ncc(F)c12 (stereo not shown) [SC38, 1-(4-fluoro-7-(1H-1,2,3-triazol-1-yl)-1H-pyrrolo[2,3-c]pyridin-3-yl)-2-(1-phenyl-3a,4,6,6a-tetrahydropyrrolo[3,4-c]pyrazol-5(1H)-yl)ethane-1,2-dione]			IC50 (HIV-1HxBc2): 0.008 ± 0.003 µM
Cc1ncn(-c2ncc(F)c3c(C(=O)C(=O)N4CC5C=NN(c6nnnn6-c6ccccc6)C5C4)c[nH]c23)n1 (stereo not shown) [SC39, 1-(4-fluoro-7-(3-methyl-1H-1,2,4-triazol-1-yl)-1H-pyrrolo[2,3-c]pyridin-3-yl)-2-(1-(1-phenyl-1H-tetrazol-5-yl)-3a,4,6,6a-tetrahydropyrrolo[3,4-c]pyrazol-5(1H)-yl)ethane-1,2-dione]			IC50 (HIV-1HxBc2): 35.3 ± 9.3 µM
